Counter-ions that a name gives are not always drawn.
What was measured:
L6-myotubes [1] = assay: Measurement of intracellular cAMP levels in differentiated L6 cells; type: cell-based; conditions: Rattus norvegicus, L6, 0.25 h, compound at 10 µM (1×10^−5 M), 15 min, vs isoproterenol at 10 µM, read-out: Biological example 2: intracellular cAMP levels, activity compared to that of isoproterenol
Description: L6-myoblasts were grown in Dulbecco's Modified Eagle's Medium (DMEM) containing 1 g/L glucose supplemented with 10% fetal bovine serum, 2 mM L-Glutamine, 50 U/ml penicillin, 50 μg/mL streptomycin and 10 mM HEPES. Cells were plated at 1×10^5 cells per mL in 24-well plates. After reaching 90% confluence the cells were grown in medium containing 2% FBS for 7 days where upon cells differentiated into myotubes. Differentiated cells were serum-starved overnight and stimulated with an agonist, final concentration 1×10^−5 M, for 15 min in stimulation buffer (HBSS supplemented with 1% BSA, 5 mM HEPES and 1 mM IBMX, pH 7.4). The medium was aspirated and 100 μL of 95% EtOH was added to each well of the 24-well plate and cells were kept at −20° C. overnight. The EtOH was allowed to evaporate and 500 μL of lysis buffer (1% BSA, 5 mM HEPES and 0.3% Tween-20, pH 7.4) was added to each well. The plate was kept at −80° C. for 30 min and then at −20° C. until the day of detection when the samples were thawed. Intracellular cAMP levels were detected using an alpha screen CAMP kit (6760635D from Perkin Elmer). The activity for each compound is compared to that of isoproterenol.

L6-myotubes [2] = assay: Glucose uptake (3H-2-deoxyglucose) in differentiated L6-myotubes; type: cell-based; conditions: compound at 10 µM (1×10^−5 M) vs isoproterenol at 10 µM, read-out: Biological example 1: glucose uptake, activity compared to that of isoproterenol
Description: L6-myoblasts were grown in Dulbecco's Modified Eagle's Medium (DMEM) containing 1 g/L glucose supplemented with 10% fetal bovine serum, 2 mM L-Glutamine, 50 U/ml penicillin, 50 μg/mL streptomycin and 10 mM HEPES. Cells were plated at 1×10^5 cells per mL in 24-well plates. After reaching 90% confluence the cells were grown in medium containing 2% FBS for 7 days where upon cells differentiated into myotubes. Differentiated L6-myotubes were serum-starved overnight in medium containing 0.5% fatty-acid free BSA and stimulated with an agonist, with a final concentration of 1×10^−5 M. After 1 h 40 min the cells were washed with warm glucose free medium or PBS twice and another portion of agonist was added to the glucose free medium. After 20 min the cells were exposed to 50 nM ^3H-2-deoxyglucose for another 10 min before washed in ice cold glucose free medium or PBS three times and lysed in 400 μL/well 0.2 M NaOH for 1 h at 60° C. The cell lysate was mixed with 4 mL scintillation buffer (Emulsifier Safe, Perkin Elmer) and the radioactivity was detected in a β-counter (Tri-Carb 4810TR, Perkin Elmer). The activity for each compound is compared to that of isoproterenol.

SMILES | Emax at 10 µM (L6-myotubes [1]) [%] | Emax at 10 µM (L6-myotubes [2]) [%]
O[C@H](c1cncc(F)c1)C12CCC(C/C=C/c3ccccc3)(CC1)N2 [Example 29, (R)-(4-Cinnamyl-7-azabicyclo[2.2.1]heptan-1-yl)(5-fluoropyridin-3-yl)-methanol] | < 25 | > 75
O[C@@H](c1cncc(F)c1)C12CCC(C/C=C/c3ccccc3)(CC1)N2 [Example 30, (S)-(4-Cinnamyl-7-azabicyclo[2.2.1]heptan-1-yl)(5-fluoropyridin-3-yl)-methanol] | < 25 | 25 to 50
O[C@H](c1cccc(F)c1)C12CCC(C/C=C/c3ccccc3)(CC1)N2 [Example 31, (R)-(4-Cinnamyl-7-azabicyclo[2.2.1]heptan-1-yl)(3-fluorophenyl)methanol] | < 25 | > 75
O[C@@H](c1cccc(F)c1)C12CCC(C/C=C/c3ccccc3)(CC1)N2 [Example 32, (S)-(4-Cinnamyl-7-azabicyclo[2.2.1]heptan-1-yl)(3-fluorophenyl)methanol] | < 25 | < 25
O[C@H](c1cncc(F)c1)C12CCC(CCCc3ccccc3)(CC1)N2 [Example 33, (R)-(5-Fluoropyridin-3-yl)(4-(3-phenylpropyl)-7-azabicyclo[2.2.1]heptan-1-yl)methanol hydrochloride] | 25 to 50 | 50 to 75
O[C@@H](c1cncc(F)c1)C12CCC(CCCc3ccccc3)(CC1)N2 [Example 34, (S)-(5-Fluoropyridin-3-yl)(4-(3-phenylpropyl)-7-azabicyclo[2.2.1]heptan-1-yl)methanol hydrochloride] | < 25 | 50 to 75
O[C@H](c1cccc(F)c1)C12CCC(CCCc3ccccc3)(CC1)N2 [Example 35, (R)-(3-Fluorophenyl)(4-(3-phenylpropyl)-7-azabicyclo[2.2.1]heptan-1-yl)methanol hydrochloride] | 25 to 50 | > 75
O[C@@H](c1cccc(F)c1)C12CCC(CCCc3ccccc3)(CC1)N2 [Example 36, (S)-(3-Fluorophenyl)(4-(3-phenylpropyl)-7-azabicyclo[2.2.1]heptan-1-yl)methanol hydrochloride] | < 25 | 25 to 50
O[C@H](c1cccc(F)c1)C12CCC(CCc3ccc(Cl)cc3)(CC1)N2 [Example 37, (R)-4-(4-Chlorophenethyl)-7-azabicyclo[2.2.1]heptan-1-yl)-(3-fluorophenyl)methanol acetate] | < 25 | < 25
O[C@@H](c1cccc(F)c1)C12CCC(CCc3ccc(Cl)cc3)(CC1)N2 [Example 38, (S)-(4-(4-Chlorophenethyl)-7-azabicyclo[2.2.1]heptan-1-yl)(3-fluoro-phenyl)methanol acetate] | < 25 | < 25
COc1ccc(CCC23CCC([C@H](O)c4cccc(F)c4)(CC2)N3)cc1 [Example 39, (R)-(3-Fluorophenyl)(4-(4-methoxyphenethyl)-7-azabicyclo[2.2.1]heptan-1-yl)methanol acetate] | < 25 | 50 to 75
COc1ccc(CCC23CCC([C@@H](O)c4cccc(F)c4)(CC2)N3)cc1 [Example 40, (S)-(3-Fluorophenyl)(4-(4-methoxyphenethyl)-7-azabicyclo[2.2.1]heptan-1-yl)methanol acetate] | < 25 | < 25
COc1ccc(CCC23CCC([C@H](O)c4cncc(F)c4)(CC2)N3)cc1 [Example 41, (R)-(5-Fluoropyridin-3-yl)(4-(4-methoxyphenethyl)-7-azabicyclo-[2.2.1]heptan-1-yl)methanol dihydrochloride] | 25 to 50 | 50 to 75
COc1ccc(CCC23CCC([C@@H](O)c4cncc(F)c4)(CC2)N3)cc1 [Example 42, (S)-(5-Fluoropyridin-3-yl)(4-(4-methoxyphenethyl)-7-azabicyclo-[2.2.1]heptan-1-yl)methanol dihydrochloride] | < 25 | < 25
